Test results from ChEMBL document CHEMBL1201862, “PubChem BioAssay data set” (2004).
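1) Cells in 96-well plates. 2) Compound, 48 h, 5 concentrations. 3) Linear interpolation between surrounding doses. 4) Unreached endpoint = highest concentration. GI50: concentration for 50% inhibition of growth.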 Activity calls are given as the source filed them. Rule as the data show it: active = GI50 up to about 1.1 µM and inactive = higher.

Key:
Test in all cases: NCI anticancer screen, dose series, 48 h
ACHN = system: ACHN
HCC 2998 = system: HCC 2998
IGROV-1 = system: IGROV-1
KM12 = system: KM12
M14 = system: M14
MCF7 = system: MCF7
MDA-MB-231 = system: MDA-MB-231
MDA-MB-435 = system: MDA-MB-435
NCI-H23 = system: NCI-H23
NCI-H522 = system: NCI-H522
OVCAR-3 = system: OVCAR-3
OVCAR-4 = system: OVCAR-4
OVCAR-5 = system: OVCAR-5
OVCAR-8 = system: OVCAR-8
RPMI-8226 = system: RPMI-8226
SF-295 = system: SF-295
SK-OV-3 = system: SK-OV-3
TK-10 = system: TK-10
UACC-257 = system: UACC-257
UO-31 = system: UO-31

Measured: GI50

COc1cc2c(cc1O)C(=O)O[C@@H]1CC=C3CCN(C)[C@H]3[C@H]21
inactive: ACHN > 25 µM | HCC 2998 > 25 µM | IGROV-1 > 25 µM | KM12 > 25 µM | M14 > 25 µM | MCF7 > 25 µM | MDA-MB-231 > 25 µM | MDA-MB-435 > 25 µM | NCI-H23 > 25 µM | NCI-H522 > 25 µM | OVCAR-3 > 25 µM | OVCAR-4 > 25 µM | OVCAR-5 > 25 µM | OVCAR-8 > 25 µM | RPMI-8226 > 25 µM | SF-295 > 25 µM | SK-OV-3 > 25 µM | TK-10 > 25 µM | UACC-257 > 25 µM | UO-31 > 25 µM

O=C1c2ccccc2S(=O)(=O)c2c1cccc2[N+](=O)[O-]
inactive: ACHN 2.44 µM | HCC 2998 5.77 µM | IGROV-1 1.9 µM | KM12 2.15 µM | M14 1.61 µM | MCF7 1.25 µM | MDA-MB-231 2.29 µM | MDA-MB-435 1.59 µM | NCI-H23 3.5 µM | NCI-H522 1.18 µM | OVCAR-3 1.22 µM | OVCAR-4 2.12 µM | OVCAR-5 3.45 µM | OVCAR-8 2.1 µM | RPMI-8226 1.63 µM | SF-295 8.99 µM | SK-OV-3 > 6.62 µM | TK-10 5.69 µM | UACC-257 1.87 µM | UO-31 2 µM

NNC(=O)c1cc([N+](=O)[O-])ccc1NC(=O)C12CC3CC(CC(C3)C1)C2
inactive: ACHN 10 µM | HCC 2998 10.5 µM | IGROV-1 1.9 µM | KM12 20.1 µM | M14 13 µM | MCF7 23.1 µM | MDA-MB-231 5.01 µM | MDA-MB-435 14.3 µM | NCI-H23 19.5 µM | NCI-H522 3 µM | OVCAR-3 3.15 µM | OVCAR-4 2.62 µM | OVCAR-5 13.4 µM | OVCAR-8 14.9 µM | RPMI-8226 12.2 µM | SF-295 14 µM | SK-OV-3 2.7 µM | TK-10 12.2 µM | UACC-257 15.2 µM | UO-31 7.98 µM

Cc1cn2c(C)csc2c1P(=O)(OC(C)C)OC(C)C
inactive: ACHN > 100 µM | HCC 2998 > 100 µM | IGROV-1 > 100 µM | KM12 > 100 µM | M14 > 100 µM | MCF7 > 100 µM | MDA-MB-231 31.3 µM | MDA-MB-435 > 100 µM | NCI-H23 > 100 µM | NCI-H522 > 100 µM | OVCAR-3 > 100 µM | OVCAR-4 > 100 µM | OVCAR-5 > 100 µM | OVCAR-8 > 100 µM | RPMI-8226 > 100 µM | SF-295 > 100 µM | SK-OV-3 > 100 µM | TK-10 > 100 µM | UACC-257 > 100 µM | UO-31 > 100 µM
